Where “and” joins values, the source holds several entries; their conditions need not be identical. Equal values may be shown once. Toxic doses and inconclusive results are not listed.
Test system: P388 leukemia ip, CD2F1 mice, survival T/C
Test: NCI In Vivo Anticancer Drug Screen. Data for tumor model P388 Leukemia (intraperitoneal) in CD2F1 (CDF1) mice
Details: endpoint: median survival time, higher = longer survival
In short: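 Mice carrying the transplanted tumor received test compound or vehicle. Survival was recorded in each group, and the value is the treated-group measurement divided by that of the vehicle-treated control group.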

[1] = dose: 50.0 mg/kg/injection, schedule: Q01DX009 (ip), vehicle: saline
[2] = dose: 100.0 mg/kg/injection, schedule: Q01DX009 (ip), vehicle: saline
[3] = dose: 200.0 mg/kg/injection, schedule: Q01DX009 (ip), vehicle: saline
[4] = dose: 50.0 mg/kg/injection, schedule: Q01DX005 (ip), vehicle: Klucel (hydroxypropylcellulose) (HPC)
[5] = dose: 100.0 mg/kg/injection, schedule: Q01DX005 (ip), vehicle: Klucel (hydroxypropylcellulose) (HPC)
[6] = dose: 200.0 mg/kg/injection, schedule: Q01DX005 (ip), vehicle: Klucel (hydroxypropylcellulose) (HPC)

CC(=O)N(C)N=NCCCl
T/C (dose: 13.12 mg/kg/injection, schedule: Q01DX005 (ip), vehicle: saline with Tween-80): 157 % of control | T/C (dose: 26.15 mg/kg/injection, schedule: Q01DX005 (ip), vehicle: saline with Tween-80): 217 % of control | T/C (dose: 52.5 mg/kg/injection, schedule: Q01DX005 (ip), vehicle: saline with Tween-80): 257 % of control | T/C (dose: 105.0 mg/kg/injection, schedule: Q01DX005 (ip), vehicle: saline with Tween-80): 171 % of control

COc1cc2c3c(c1)-c1c(ccc(OC)c1O)CC3N(C)CC2 (configuration not stated)
T/C (dose: 6.25 mg/kg/injection, schedule: Q04DX003 (ip), vehicle: DMSO): 101 % of control | T/C (dose: 12.5 mg/kg/injection, schedule: Q04DX003 (ip), vehicle: DMSO): 101 % of control | T/C (dose: 25.0 mg/kg/injection, schedule: Q04DX003 (ip), vehicle: DMSO): 100 % of control | T/C (dose: 50.0 mg/kg/injection, schedule: Q04DX003 (ip), vehicle: DMSO): 100 % of control

c1ccc2c(c1)CCCN2c1nc(N2CCCC2)nc(N2CCOCC2)n1
T/C [1]: 99 % of control | T/C [2]: 89 % of control | T/C [3]: 92 % of control

Cc1cc([N+](=O)[O-])cc(Cl)n1
T/C (dose: 3.12 mg/kg/injection, schedule: Q01DX009 (ip), vehicle: Klucel (hydroxypropylcellulose) (HPC)): 106 % of control | T/C (dose: 6.25 mg/kg/injection, schedule: Q01DX009 (ip), vehicle: Klucel (hydroxypropylcellulose) (HPC)): 99 % of control | T/C (dose: 12.5 mg/kg/injection, schedule: Q01DX009 (ip), vehicle: Klucel (hydroxypropylcellulose) (HPC)): 100 % of control | T/C (dose: 25.0 mg/kg/injection, schedule: Q01DX009 (ip), vehicle: Klucel (hydroxypropylcellulose) (HPC)): 106 % of control

CCN=C(Cl)N(C)c1ccccc1
T/C (dose: 50.0 mg/kg/injection, schedule: Q01DX009 (ip), vehicle: Klucel (hydroxypropylcellulose) (HPC)): 100 % of control | T/C (dose: 100.0 mg/kg/injection, schedule: Q01DX009 (ip), vehicle: Klucel (hydroxypropylcellulose) (HPC)): 95 % of control

COC(=O)c1ccnc(-c2cc(C(=O)OC)ccn2)c1
T/C [1]: 99 % of control | T/C [2]: 93 % of control | T/C [3]: 92 % of control

CC1=CCC(C(C)(O)C2CCC3(C)C4=C(C=C5C=CC(=O)OC(C)(C)C5CC4)CCC23C)OC1=O (configuration not stated)
T/C (dose: 12.5 mg/kg/injection, schedule: Q01DX005 (ip), vehicle: other): 94 % of control | T/C (dose: 25.0 mg/kg/injection, schedule: Q01DX005 (ip), vehicle: other): 92 % of control

Cc1nc(Nc2c(C)cccc2C)c2c(C)c(Cc3ccccc3)[nH]c2n1
T/C [4]: 89 % of control | T/C [5]: 89 % of control | T/C [6]: 104 % of control

Cc1cc(C)n(-c2nnc(-n3nc(C)cc3C)c3ccccc23)n1
T/C [1]: 94 % of control | T/C [2]: 87 % of control

Cc1nnsc1C(=O)NCc1c(F)cccc1Cl
T/C [4]: 97 % of control | T/C [5]: 99 % of control | T/C [6]: 98 % of control

O=C(O)c1cncc(C(=O)NCO)c1
T/C (dose: 12.5 mg/kg/injection, schedule: Q01DX009 (ip), vehicle: saline): 101 % of control | T/C (dose: 25.0 mg/kg/injection, schedule: Q01DX009 (ip), vehicle: saline): 101 % of control and 91 % of control | T/C [3]: 99 % of control and 103 % of control and 91 % of control

Cc1cccc2c1CC(C(C)C)C2 (configuration not stated)
T/C (dose: 25.0 mg/kg/injection, schedule: Q01DX009 (ip), vehicle: saline with Tween-80): 111 % of control and 89 % of control | T/C (dose: 50.0 mg/kg/injection, schedule: Q01DX009 (ip), vehicle: saline with Tween-80): 108 % of control and 96 % of control | T/C (dose: 100.0 mg/kg/injection, schedule: Q01DX009 (ip), vehicle: saline with Tween-80): 104 % of control and 107 % of control | T/C (dose: 200.0 mg/kg/injection, schedule: Q01DX009 (ip), vehicle: saline with Tween-80): 90 % of control

COc1ccc(/C=C/C(=O)c2cc(C(=O)O)c(OC)cc2OC)cc1OC
T/C (dose: 50.0 mg/kg/injection, schedule: Q01DX009 (ip), vehicle: suspension in saline): 117 % of control and 120 % of control | T/C (dose: 100.0 mg/kg/injection, schedule: Q01DX009 (ip), vehicle: suspension in saline): 123 % of control

O=C1c2ccccc2C(=O)c2c(O)ccc3cccc1c23
T/C (dose: 50.0 mg/kg/injection, schedule: Q01DX005 (ip), vehicle: Klucel + Tween-80): 92 % of control | T/C (dose: 100.0 mg/kg/injection, schedule: Q01DX005 (ip), vehicle: Klucel + Tween-80): 92 % of control | T/C (dose: 200.0 mg/kg/injection, schedule: Q01DX005 (ip), vehicle: Klucel + Tween-80): 92 % of control

[CH3][Sn]([CH3])([O]C(=O)CNC(=O)c1ccccc1)[O]C(=O)CNC(=O)c1ccccc1
T/C (dose: 0.79 mg/kg/injection, schedule: Q01DX001 (ip), vehicle: Klucel (hydroxypropylcellulose) (HPC)): 97 % of control | T/C (dose: 1.56 mg/kg/injection, schedule: Q01DX001 (ip), vehicle: Klucel (hydroxypropylcellulose) (HPC)): 93 % of control | T/C (dose: 3.12 mg/kg/injection, schedule: Q01DX001 (ip), vehicle: Klucel (hydroxypropylcellulose) (HPC)): 100 % of control

O=c1ccnc[nH]1
T/C (dose: 100.0 mg/kg/injection, schedule: Q04DX002 (ip), vehicle: saline with Tween-80): 105 % of control | T/C (dose: 200.0 mg/kg/injection, schedule: Q04DX002 (ip), vehicle: saline with Tween-80): 93 % of control
